Assay results taken from US8450317B2, “CXCR3 receptor antagonists” (Boehringer Ingelheim International GmbH, priority 2009, dated 2013).
pIC50: −log10 of the molar value.

target: CXCR3 (Macaca fascicularis, UniProt A0A2K5UV19); assay: functional cellular assay measuring calcium flux in CXCR3 transfected cells (block of CXCR3/IP-10 interaction); format: cell-based, Cyno; conditions: not given
Procedure: Compounds are assessed for the ability to block the interaction of CXCR3 and IP-10 in a functional cellular assay measuring calcium flux in CXCR3 transfected cells.
Cyno-CHO cells, stably expressing recombinant CXCR3 and G-alpha-16 are grown in F12 medium (Mediatech #45000-360) supplemented with 10% (V/V) FBS (Mediatech #35-01500), 1% Geneticin (Invitrogen #10131-027) and 0.2% Zeocin (Invitrogen #R250-05). The cells are spun down and re-suspended in growth media to a concentration of […]. 25 microL of cell suspension is added to each well of a BD-384-well TC treated plate, providing 12,000 cells/well. The plate is incubated at 37° C./5% CO2 overnight. On the day of the assay, the plates are removed, the media is flicked out and 25 microL of Ca-4 dye in assay buffer (HBSS, 10 mM HEPES ph 7.4), containing 2 mM probenacid is added to each well. The cell assay plates are then incubated at 37° C./5% CO2 for one hour.
Test compounds are dissolved in DMSO and diluted to 1.045 mM in DMSO. Just prior to assay, 2.75 microL of appropriately diluted test compound are added to each well of a 384 well plate containing 45 microL of HBSS buffer. After mixing, 5 microL of diluted compound are added to each well of the cell assay plate for a final assay concentration of 10 microM. The plate is incubated at room temperature for 15 min. 10 microL of IP-10 stock solution in HBSS (4× EC80 concentration) are added to each well of the cell assay plate except those cells reserved as blank wells containing buffer only. Intracellular calcium flux is recorded on the HAMAMTSU FDSS6000, using excitation at 480 nm and emission at 540 nm. Data are analyzed using Activity Base software.
In general, the preferred potency range (IC50) of compounds in the above assay is between 1 nM to 3 μM, and the most preferred potency range is 1 nM to 200 nM.

CXCR3, sequence (A0A2K5UV19 entry or part of it): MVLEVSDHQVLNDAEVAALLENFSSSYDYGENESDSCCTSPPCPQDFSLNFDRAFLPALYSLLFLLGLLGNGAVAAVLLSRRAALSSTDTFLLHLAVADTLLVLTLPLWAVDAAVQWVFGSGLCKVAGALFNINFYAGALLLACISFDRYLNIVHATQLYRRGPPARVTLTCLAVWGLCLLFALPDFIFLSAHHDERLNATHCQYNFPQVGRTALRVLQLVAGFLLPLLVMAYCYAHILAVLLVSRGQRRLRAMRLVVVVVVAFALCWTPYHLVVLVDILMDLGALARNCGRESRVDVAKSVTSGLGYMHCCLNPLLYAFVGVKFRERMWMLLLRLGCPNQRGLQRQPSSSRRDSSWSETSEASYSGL

Row | SMILES | pIC50
1 | COc1ncc(-c2ccccc2N2CC3CCC(C2)N3C(=O)Cn2ccc3cccnc32)cn1 [1-{3-[2-(2-Methoxy-pyrimidin-5-yl)-phenyl]-3,8-diaza-bicyclo[3.2.1]oct-8-yl}-2-pyrrolo[2,3-b]pyridin-1-yl-ethanone] | 8.15

same assay, conditions: IP-10 induced intracellular calcium flux; Cyno-CHO cells stably expressing recombinant CXCR3 and G-alpha-16; IP-10 at EC80; read-out: IC50

Row | SMILES | pIC50
2 | Cc1cc(C)n(CC(=O)N2CCN(c3ccc(C(F)(F)F)cc3-c3cnc(S(C)(=O)=O)nc3)CC2C)n1 (centres unmarked) [2-(3,5-dimethyl-1H-pyrazol-1-yl)-1-(2-methyl-4-{2-[2-(methylsulfonyl)pyrimidin-5-yl]-4-(trifluoromethyl)phenyl}piperazin-1-yl)ethanone] | 7.25
3 | Cc1cc(C)n(CC(=O)N2CCN(c3ccccc3-c3cnc(N4CCC(N(C)C)CC4)nc3)CC2)n1 [1-(4-{2-[2-(4-Dimethylamino-piperidin-1-yl)-pyrimidin-5-yl]-phenyl}-piperazin-1-yl)-2-(3,5-dimethyl-pyrazol-1-yl)-ethanone] | 7.51
4 | COc1cc(NC(=O)c2cc(F)ccc2N2CCN(C(=O)CN(C)C(=O)c3ncoc3C)[C@H](C)C2)ccn1 [N-{2-[(2R)-4-{4-fluoro-2-[(2-methoxypyridin-4-yl)carbamoyl]phenyl}-2-methylpiperazin-1-yl]-2-oxoethyl}-N,5-dimethyl-1,3-oxazole-4-carboxamide] | 7.92
5 | O=C(CN1CCCCC1=O)N1CCN(c2ccc(F)cc2-c2cnc(N3CCCC3)nc2)CC1 [1-[2-(4-{4-fluoro-2-[2-(pyrrolidin-1-yl)pyrimidin-5-yl]phenyl}piperazin-1-yl)-2-oxoethyl]piperidin-2-one] | 7.64
6 | C[C@@H]1CN(c2ccc(F)cc2C(=O)Nc2nc3c(s2)CN(C)CC3)CCN1C(=O)Cn1cnc2cccnc21 [5-fluoro-2-[(3R)-4-(3H-imidazo[4,5-b]pyridin-3-ylacetyl)-3-methylpiperazin-1-yl]-N-(5-methyl-4,5,6,7-tetrahydro[1,3]thiazolo[5,4-c]pyridin-2-yl)benzamide] | 7.82
7 | CS(=O)(=O)c1ncc(-c2cc(C(F)(F)F)ccc2N2CCN(C(=O)Cn3ccc4cccnc43)CC2)cn1 [1-{4-[2-(2-Methanesulfonyl-pyrimidin-5-yl)-4-trifluoromethyl-phenyl]-piperazin-1-yl}-2-pyrrolo[2,3-b]pyridin-1-yl-ethanone] | 7.89
8 | CS(=O)(=O)c1ncc(-c2cc(F)ccc2N2CCN(C(=O)Cn3c(=O)[nH]c4ccccc43)CC2)cn1 [1-[2-(4-{4-fluoro-2-[2-(methylsulfonyl)pyrimidin-5-yl]phenyl}piperazin-1-yl)-2-oxoethyl]-1,3-dihydro-2H-benzimidazol-2-one] | 7.33
9 | Cc1cn(CC(=O)N2CCN(c3ccccc3-c3ccc(C#N)nc3)CC2)c(C)n1 [5-(2-{4-[2-(2,4-Dimethyl-imidazol-1-yl)-acetyl]-piperazin-1-yl}-phenyl)-pyridine-2-carbonitrile] | 7.33
10 | Cc1cc(C)n(CC(=O)N2CCN(c3ccccc3-c3cnc(N4CCC(C(C)(C)O)CC4)nc3)CC2)n1 [2-(3,5-Dimethyl-pyrazol-1-yl)-1-[4-(2-{2-[4-(1-hydroxy-1-methyl-ethyl)-piperidin-1-yl]-pyrimidin-5-yl}-phenyl)-piperazin-1-yl]-ethanone] | 7.92
11 | CC(C)C(=O)N(C)CC(=O)N1CCN(c2ccc(F)cc2C(=O)Nc2nc3c(s2)CN(C)CC3)C[C@@H]1C [5-fluoro-2-{(3S)-3-methyl-4-[N-methyl-N-(2-methylpropanoyl)glycyl]piperazin-1-yl}-N-(5-methyl-4,5,6,7-tetrahydro[1,3]thiazolo[5,4-c]pyridin-2-yl)benzamide] | 7.85
12 | O=C(CN1Cc2ccccc2C1=O)N1CCN(c2ccc(F)cc2-c2cnc(N3CCOCC3)nc2)CC1 [2-[2-(4-{4-fluoro-2-[2-(morpholin-4-yl)pyrimidin-5-yl]phenyl}piperazin-1-yl)-2-oxoethyl]-2,3-dihydro-1H-isoindol-1-one] | 7.64
13 | Cc1cc(C)n(CC(=O)N2CCN(c3ccccc3-c3cnc(N4CCC(C)(C)CC4)nc3)CC2)n1 [1-(4-{2-[2-(4,4-Dimethyl-piperidin-1-yl)-pyrimidin-5-yl]-phenyl}-piperazin-1-yl)-2-(3,5-dimethyl-pyrazol-1-yl)-ethanone] | 7.92
14 | N#Cc1ccc(-c2ccccc2N2CCN(C(=O)CNc3nccs3)CC2)cn1 [5-(2-{4-[2-(Thiazol-2-ylamino)-acetyl]-piperazin-1-yl}-phenyl)-pyridine-2-carbonitrile] | 7.33
15 | Cc1cc(C)n(CC(=O)N2CCN(c3ccc(F)cc3C(=O)Nc3nc4c(s3)CN(C)CC4)C[C@@H]2C)n1 [2-{(3S)-4-[(3,5-dimethyl-1H-pyrazol-1-yl)acetyl]-3-methylpiperazin-1-yl}-5-fluoro-N-(5-methyl-4,5,6,7-tetrahydro[1,3]thiazolo[5,4-c]pyridin-2-yl)benzamide] | 7.92
16 | Cc1cc(C)n(CC(=O)N2CCN(c3ccccc3-c3cnc(N4C[C@@H]5C[C@H]4CO5)nc3)CC2)n1 [2-(3,5-Dimethyl-pyrazol-1-yl)-1-(4-{2-[(1S,4S)-2-(2-oxa-5-aza-bicyclo[2.2.1]hept-5-yl)-pyrimidin-5-yl]-phenyl}-piperazin-1-yl)-ethanone] | 7.85
17 | Cc1cc(C)n(CC(=O)N2CCN(c3ccccc3-c3cnc(N4CCCOCC4)nc3)CC2)n1 [2-(3,5-Dimethyl-pyrazol-1-yl)-1-{4-[2-(2-[1,4]oxazepan-4-yl-pyrimidin-5-yl)-phenyl]-piperazin-1-yl}-ethanone] | 7.96
18 | Cc1cc(C)n(CC(=O)N2CCN(c3ccc(F)cc3-c3cnc(N4CCC(S(C)(=O)=O)CC4)nc3)CC2)n1 [2-(3,5-dimethyl-1H-pyrazol-1-yl)-1-[4-(4-fluoro-2-{2-[4-(methylsulfonyl)piperidin-1-yl]pyrimidin-5-yl}phenyl)piperazin-1-yl]ethanone] | 7.96
19 | O=C(Cn1ccc2cccnc21)N1CCN(c2ccccc2-c2cnc(N3CCCCC3)nc2)CC1 [1-{4-[2-(2-Piperidin-1-yl-pyrimidin-5-yl)-phenyl]-piperazin-1-yl}-2-pyrrolo[2,3-b]pyridin-1-yl-ethanone] | 7.96

Continued, values first:

Row | pIC50 | SMILES
20 | 8.10 | Cc1cc(C)n(CC(=O)N2CCN(c3ccc(C(F)(F)F)cc3-c3cnc(N4CCC(O)CC4)nc3)CC2C)n1 (centres unmarked) [2-(3,5-dimethyl-1H-pyrazol-1-yl)-1-(4-{2-[2-(4-hydroxypiperidin-1-yl)pyrimidin-5-yl]-4-(trifluoromethyl)phenyl}-2-methylpiperazin-1-yl)ethanone]
21 | 8.15 | Cc1cc(C)n(CC(=O)N2CCN(c3ccccc3-c3cnc(N(C)C)nc3)CC2)n1 [1-{4-[2-(2-Dimethylamino-pyrimidin-5-yl)-phenyl]-piperazin-1-yl}-2-(3,5-dimethyl-pyrazol-1-yl)-ethanone]
22 | 8.22 | CNc1ncc(-c2cc(Cl)ccc2N2CCN(C(=O)Cn3ccc4cccnc43)CC2)cn1 [1-{4-[4-Chloro-2-(2-methylamino-pyrimidin-5-yl)-phenyl]-piperazin-1-yl}-2-pyrrolo[2,3-b]pyridin-1-yl-ethanone]
23 | 7.96 | COc1ncc(-c2cc(F)ccc2N2CCN(C(=O)Cn3ccc4cccnc43)CC2)cn1 [1-{4-[4-fluoro-2-(2-methoxypyrimidin-5-yl)phenyl]piperazin-1-yl}-2-(1H-pyrrolo[2,3-b]pyridin-1-yl)ethanone]
24 | 8.10 | COc1ncc(-c2ccccc2N2CCN(C(=O)Cn3ccc4cc(F)cnc43)CC2)cn1 [2-(5-Fluoro-pyrrolo[2,3-b]pyridin-1-yl)-1-{4-[2-(2-methoxy-pyrimidin-5-yl)-phenyl]-piperazin-1-yl}-ethanone]
25 | 8.15 | CNc1ncc(-c2cc(C(F)(F)F)ccc2N2CCN(C(=O)Cn3nc(C)cc3C)CC2)cn1 [2-(3,5-Dimethyl-pyrazol-1-yl)-1-{4-[2-(2-methylamino-pyrimidin-5-yl)-4-trifluoromethyl-phenyl]-piperazin-1-yl}-ethanone]
26 | 8.05 | COc1cc(NC(=O)c2cc(F)ccc2N2CCN(C(=O)Cn3ccc4cccnc43)[C@H](C)C2)ccn1 [5-fluoro-N-(2-methoxypyridin-4-yl)-2-[(3R)-3-methyl-4-(1H-pyrrolo[2,3-b]pyridin-1-ylacetyl)piperazin-1-yl]benzamide]
27 | 8.05 | O=C(Cn1ccc2cccnc21)N1CCN(c2ccccc2-c2cnc(N3CCCC3)nc2)CC1 [1-{4-[2-(2-Pyrrolidin-1-yl-pyrimidin-5-yl)-phenyl]-piperazin-1-yl}-2-pyrrolo[2,3-b]pyridin-1-yl-ethanone]
28 | 8.30 | Cc1cc(C)n(CC(=O)N2CCN(c3ccc(F)cc3-c3cnc(N4CCOCC4)nc3)CC2)n1 [2-(3,5-Dimethyl-pyrazol-1-yl)-1-{4-[4-fluoro-2-(2-morpholin-4-yl-pyrimidin-5-yl)-phenyl]-piperazin-1-yl}-ethanone]
29 | 8.05 | CCNc1ncc(-c2ccccc2N2CCN(C(=O)Cn3ccc4cccnc43)CC2)cn1 [1-{4-[2-(2-Ethylamino-pyrimidin-5-yl)-phenyl]-piperazin-1-yl}-2-pyrrolo[2,3-b]pyridin-1-yl-ethanone]
